Drawing on the supplement of paper PMC4862054, this text covers normalised viability for 20 compounds.

What all share (test): normalised viability (% of control), CellTiter-Blue; higher = more viable cells (about 100 = DMSO control)
What all share (conditions): incubation time: 72 h

In test [1] the test system is CAL-148. The procedure:
(§1)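 DSRT, CellTiter-Blue viability, 72 h incubation. Signal is normalised to DMSO and benzethonium chloride controls. Value is the normalised response at dose 8.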

For test [2], the system named is CAL-51. The procedure:
as §1

Test [3] relates to CAL-85-1. On the procedure:
as §1

Test [4] concerns DU-4475. The procedure: as §1
In test [5] the test system is HDQ-P1. The procedure: as §1
The test system of test [6] is MDA-MB-453. On the procedure:
as §1

Test [7] deals with CAL-148. On the procedure: (§2)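 DSRT, CellTiter-Blue viability, 72 h incubation. Signal is normalised to DMSO and benzethonium chloride controls. Value is the normalised response at dose 7.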
This is another data set of the same source.

For test [8], the system named is CAL-51. On the procedure:
as §2
The source holds these as a separate data set.

Test [9] deals with CAL-85-1. The procedure:
as §2
The source holds these as a separate data set.

In test [10] the test system is DU-4475. The procedure:
as §2
This is another data set of the same source.

Test [11] has as its system HDQ-P1. On the procedure:
as §2
The source holds these as a separate data set.

Test [12] relates to MDA-MB-453. The procedure:
as §2
The source holds these as a separate data set.

Molecules are shown by their SMILES.

Regarding `Cc1ccc(C(=O)N(CCCN)[C@@H](c2oc3cc(Cl)ccc3c(=O)c2Cc2ccccc2)C(C)C)cc1` (300 nM), the normalised viability in test [1] was 16.8%; in test [2], 26.7%; in test [3], 32.4%; in [4], 31.2%; in test [5], 62.6%; in [6] it was 24.8%.

As to `NC(=O)Nc1cc(-c2cccc(F)c2)sc1C(=O)N[C@H]1CCCNC1` [AZD 7762] (100 nM), the normalised viability in test [7] was 102%; in test [8], 101%; in test [9], 89.1%; in [10] it was 97.4%; in [11], 96.5%; in test [12] it was 88.5%.

With `NC(=O)Nc1cc(-c2cccc(F)c2)sc1C(=O)N[C@H]1CCCNC1` [AZD 7762] (300 nM), the normalised viability in test [1] came to 96.1%; in test [2], 94.1%; in [3], 45.4%; in [4], 118%; in test [5] it was 76.6%; in test [6], 46.8%.

As to `CO[C@H]1/C=C\C=C(/C)C(=O)NC2=CC(=O)C(NCCN(C)C)=C(C[C@@H](C)C[C@H](OC)[C@H](O)[C@@H](C)/C=C(\C)[C@@H]1OC(N)=O)C2=O` [Alvespimycin] (300 nM), the normalised viability in test [1] is 14.8%; in test [2] it was 18.2%; in test [3] it was 24.4%; in [4] it was 1.07%; in test [5], 33.1%; in [6], 8.24%.

For the compound `CCC1(c2ccc(N)cc2)CCC(=O)NC1=O` (stereo not given) [Aminoglutethimide] (3000 nM), the normalised viability in [1] came to 105%; in test [2], 85.1%; in [3], 90.1%; in test [4] it was 103%; in test [5], 92.5%; in test [6], 82.6%.

Turning to `NCC(=O)CCC(=O)O` [Aminolevulinic acid] (1000 nM), the normalised viability in test [7] turned out to be 95%; in test [8] it was 106%; in test [9], 97.4%; in test [10], 95.6%; in test [11], 95.2%; in test [12] it was 90.5%.

Take `NCC(=O)CCC(=O)O` [Aminolevulinic acid] (3000 nM): the normalised viability in [1] came out at 96.7%; in test [2] it was 109%; in [3] it was 88.7%; in test [4] it was 110%; in test [5], 103%; in test [6] it was 122%.

In the case of `CCN(CCCOc1ccc2c(Nc3cc(CC(=O)Nc4cccc(F)c4)[nH]n3)ncnc2c1)CCOP(=O)(O)O` [Barasertib] (100 nM), the normalised viability in test [7] stood at 23.7%; in test [8], 60.6%; in test [9] it was 77.2%; in [10] it was 77%; in test [11], 76.5%; in [12], 55.3%.

On to `CCN(CCCOc1ccc2c(Nc3cc(CC(=O)Nc4cccc(F)c4)[nH]n3)ncnc2c1)CCOP(=O)(O)O` [Barasertib] (300 nM), for which the normalised viability turned out to be 22.6% in test [1]; 54% in test [2]; 73.1% in test [3]; 63.8% in test [4]; 64.3% in test [5]; 61% in test [6].

With `Cn1c(CCCC(=O)O)nc2cc(N(CCCl)CCCl)ccc21` [Bendamustine] (3000 nM), the normalised viability in [1] was 101%; in test [2], 112%; in test [3] it was 93.8%; in [4] it was 105%; in test [5], 101%; in test [6], 113%.

Consider `C=C(c1ccc(C(=O)O)cc1)c1cc2c(cc1C)C(C)(C)CCC2(C)C` [Bexarotene] (3000 nM), for which the normalised viability in test [1] came out at 79.8%; in test [2] it was 92.8%; in test [3], 99.2%; in [4], 97%; in test [5], 77.3%; in test [6], 84.2%.

`CC(=O)Nc1ccc(C(=O)Nc2ccccc2N)cc1` [CI-994] (100 nM): the normalised viability in test [7] came to 91.2%; in [8], 98.1%; in test [9], 89.5%; in [10] it was 98.7%; in test [11], 119%; in [12], 92%.

Take `CC(=O)Nc1ccc(C(=O)Nc2ccccc2N)cc1` [CI-994] (300 nM): the normalised viability came to 100% in test [1]; 99.5% in [2]; 110% in [3]; 90.5% in test [4]; 130% in test [5]; 96.1% in test [6].

`COc1cc2nccc(Oc3ccc(NC(=O)C4(C(=O)Nc5ccc(F)cc5)CC4)cc3)c2cc1OC` [Cabozantinib] (300 nM): the normalised viability in test [1] was determined as 94.7%; in [2], 104%; in test [3], 86.3%; in test [4] it was 103%; in test [5] it was 72.6%; in [6], 112%.

With `N.N.[Cl][Pt][Cl]` [Cisplatin] (3000 nM), the normalised viability in test [1] is 101%; in test [2], 106%; in test [3], 99.1%; in [4], 96.8%; in [5], 104%; in test [6] it was 100%.

As for `C[C@@H](Oc1cc(-c2cnn(C3CCNCC3)c2)cnc1N)c1c(Cl)ccc(F)c1Cl` [Crizotinib] (3000 nM), the normalised viability was 76.8% in [1]; 62.9% in test [2]; 66.1% in test [3]; 78.7% in test [4]; 86.7% in test [5]; 57.3% in test [6].

As to `CN(C)/N=N/c1[nH]cnc1C(N)=O` [Dacarbazine] (3000 nM), the normalised viability amounted to 94.8% in test [1]; 97.2% in test [2]; 87.3% in [3]; 101% in test [4]; 95.5% in [5]; 95.7% in test [6].

Consider `Cc1ccc(-n2nc(C(C)(C)C)cc2NC(=O)Nc2ccc(OCCN3CCOCC3)c3ccccc23)cc1` [Doramapimod] (3000 nM), for which the normalised viability in test [1] worked out at 93.1%; in test [2] it was 102%; in test [3], 76%; in test [4] it was 114%; in [5], 75.8%; in test [6], 96.8%.

For `C#Cc1cccc(Nc2ncnc3cc(OCCOC)c(OCCOC)cc23)c1` [Erlotinib] (3000 nM), the normalised viability came out at 66.9% in test [1]; 95.9% in [2]; 49.8% in [3]; 108% in test [4]; 75.4% in [5]; 73.5% in [6].

For the compound `COc1cc([C@@H]2c3cc4c(cc3[C@@H](O[C@@H]3O[C@@H]5CO[C@@H](C)O[C@H]5[C@H](O)[C@H]3O)[C@H]3COC(=O)[C@H]23)OCO4)cc(OC)c1O` [Etoposide] (3000 nM), the normalised viability was determined as 41.3% in test [1]; 26.4% in [2]; 76.9% in test [3]; 3.63% in test [4]; 78.7% in test [5]; 89% in test [6].
